Experiments:
HBV = HBV level in HepAD38 cells, immunoblot; type: cell-based; conditions: HepAD38, siRNA or overexpression 48 h
HCoV-OC43 = HCoV-OC43 infection of RD cells (viral RNA, TCID50, CPE); conditions: antibody 0.5 μg/ml; peptides 1 μM or rLRPAP1 200 nM pre-treatment 1 h, 72 h; siRNA 24 h then MOI 1, 72 h
IFNAR1 [1] = test: IFNAR1 protein level, HepAD38 cells, immunoblot; type: cell-based; conditions: siRNA or overexpression 48 h; LF 400 nM 24 h
2A^pro = test: MST binding to recombinant 2A protease (baits r2A and 2Am; MS and MST); parameters: species or system EV71; conditions: recombinant 2A^pro (r2A) and 2A^C110A (2Am) as baits
Protocol: (§1) The polyhistidine (His)-tag peptides, the recombinant 2A, the recombinant 2Am, and ECD-IFNAR1, were incubated with the RED-tris-NTA 2nd Generation dye (Cat#MO-L018, Nanotemper-Technologies) for 30 min, respectively. Then these fluorescently labeled peptides were mixed with the serial diluted ligands, including the scramble peptide, the commercial penetrating peptide (RV5), LRPAP1 peptides (RAPD1P1, RAPD1P2), or rLRPAP1 without His-tag, respectively. The mixtures were captured by Monolith^TM NT.115 Series capillaries (Cat# MO-K022). Capillaries were then subjected to Monolith NT for MST analysis. According to Monolith guidelines, signal-to-noise (S/N) ratios greater than 5.0 were indicated as the valid binding.
as §1, with “NT. For” for “NT for”, “According to Monolith guidelines, signal-to-noise (S/N) ratios greater than 5.0 were indicated as the valid binding.” left out

IFNAR1 [2] = test: IFNAR1 ubiquitination, immunoprecipitation, HEK-293T cells; type: cell-based, human; conditions: ubiquitin, LRPAP1 and IFNAR1 overexpressed
Protocol: (§2) The interaction of LRPAP1, LRP1 and IFNAR1 was examined by immunoprecipitation using a protocol described as followed. HEK293T cells were cultured at around 90% confluence in a 100 mm tissue culture dish. Cells were washed with 10 ml of PBS and harvested in 0.5 ml of ice-cold lysis buffer ([…], pH 7.4, 1% SDS, 1% NP-40) and Protease Cocktail (Roche) and PhoSTOP (Roche). The total extract was pre-cleared with 10 μg normal rabbit IgG (Cell signaling, 2729 S) and 20 μl of protein A/G plus-agarose (Santa Cruz Biotechnology) at 4 °C on a rotor for 1 h. After gently removed protein A/G agarose beads by centrifugation at 500 rcf for 2 min, 0.2 mg of total extract was immunoprecipitated with the indicated antibodies overnight at 4 °C on a rotor. Approximately 20 μl of protein A/G plus-agarose (Santa Cruz Biotechnology) was added at 4 °C for one hour. Then, the beads were washed three times with washing buffer (lysis buffer contained 0.1% NP-40). The pellet was suspended with 40 μl PBS and 10 μl of 5× SDS-PAGE loading buffer and the samples were boiled for 10 min.

[3] = system: type I IFN signaling pathway; test: Interferon-stimulated gene (ISG) mRNA levels, RD cells; type: cell-based; conditions: excessive LRPAP1 expression
[4] = system: extracellular domain of IFNAR1; test: Pull-down / co-immunoprecipitation of LRPAP1 with IFNAR1; type: binding; conditions: HEK-293T cells ectopic-expressing LRPAP1 and IFNAR1; also mouse cerebrum
Protocol: as §2
The interaction of LRPAP1, LRP1 and IFNAR1 was examined by immunoprecipitation using a protocol described as followed. HEK293T cells were cultured at around 90% confluence in a 100 mm tissue culture dish. […]

IFNAR1 [5] = test: IFNAR1 protein level, immunoblot, HEK-293T cells; type: cell-based, human
HSV-1 = HSV-1 infection of RD cells (viral DNA, TCID50, viral protein, CPE)
EV71 = EV71 infection of RD cells (viral RNA, titer, viral protein, CPE); conditions: RD cells, 9 h; plasmid, recombinant protein or peptide pre-treatment; viral RNA / titer

For “LDL-receptor-related protein-associated protein 1 [LRPAP1]”, the HBV level (HBV) was “higher HBV loads”, the “HCoV-OC43 CPE” value (HCoV-OC43) was “more obvious cytopathic effects” and the “IFNAR1 expression in HepAD38 cells” value (IFNAR1 [1]) was “decreased level of IFNAR1”. For the same substance, the “interaction with 2A^pro” value (2A^pro) was “interacts with 2A^pro”, the IFNAR1 ubiquitination (IFNAR1 [2]) was “dramatically increased IFNAR1 ubiquitination” and the “type I IFN signaling pathway” value [3] was “suppressing the type I IFN signaling pathway and the expression of downstream interferon-stimulated genes”. The “interaction of LRPAP1 and IFNAR1 (co-immunoprecipitation)” value [4] was “confirmed the interaction of LRPAP1 and IFNAR1”, the “IFNAR1 level on simultaneous expression of LRPAP1 and 2A^pro” value (IFNAR1 [5]; co-expressed with 2A^pro) was “complete undetectability of IFNAR1 levels” and the IFNAR1 level (IFNAR1 [5]; transfected cells (ectopic expression or siRNA)) was “decreasing IFNAR1 to a marginal detectable level”. The “HSV-1 CPE” value (HSV-1; peptides 1 μM or rLRPAP1 200 nM pre-treatment 1 h, 24 h) was “more obvious cytopathic effect”, the “HSV-1 DNA replication” value (HSV-1; pre-treated 1 h, MOI 10, 24 h, RT-qPCR) was “promoted the DNA replication of HSV-1” and the EV71 infection (EV71) was “strikingly promoted EV71 infection”.
